Data on 1 compound can be found in US20110217337A1, “BIOACTIVE AGENT FOR BONE TISSUE ENGINEERING” (UNIVERSITY OF CONNECTICUT, priority 2010, published 2011).

Data set [1] has as its system MC3T3-E1 cells. Briefly: Trypan blue viability assay. Conditions: 100 micromolar, days 7, 14 and 21. The format is cell-based. The procedure:
FIG. 7. MC3T3-E1 cell viability of cells treated with 6-Bnz-cAMP compared to untreated cells. Cell viability was measured by trypan blue viability stain.
Viability: Cell viability is determined using a trypan blue viability assay. For trypan blue viability assay method, at day 7, 14, and 21, cells were collected by trypsinization and stained with trypan blue dye (MP Biochemicals LLC, Solon, Ohio). The cells were then numbered in a hemacytometer (Hausser Scientific, Horsham, Pa.) under a light microscopy (Olympus Corporation, Tokyo, Japan). Cell stained blue was scored a dead cell, while unstained cell was scored a live cell. The results are presented in % of viability.
(§1) MC3T3-E1 cells were grown in mineralization media. 6-Bnz-cAMP was added to the culture medium to a final concentration of 100 μM for experiments; mineralization media only was used for positive controls. Osteoblast-associated markers were quantitated at days 7 and 14. Markers include increased alkaline phosphatas (ALP) activity (FIG. 5) and calcium precipitation in MC3T3-E1 cells (FIG. 6). 6-Bnz-cAMP toxicity was assessed at days 7, 14, and 21 in cells treated with 100 micromolar 6-Bnz-cAMP compared to untreated cells. Trypan blue staining was used to visualize cells (FIG. 7).

In data set [2] the test system is MC3T3-E1 cells. Briefly: ALP activity assay. The format is cell-based. Conditions: 100 μM. As for the experimental part: FIG. 5. 6-Bnz-cAMP increases ALP activities at day 7 and 14. […] To facilitate the comparison of different experimental settings, the ALP activity of the cells cultured in the regular growth medium at Day 7 was set to one relative unit.
as §1
ALP activities were measured using ALP assay kit according to the manufacturer's instructions (Bio-Rad, Hercules, Calif.). Briefly, at day 7 and 14, cells were collected and washed 4 times with PBS prior to the ALP activity assay. Cells were then lysed with 0.1% TX-100. Cell lysates were collected and mixed with the ALP substrate solution for 1 h at 37° C. incubation. The colorimetric change due to the presence of ALP activity was measured by a spectrophotometric plate reader at 405 nm. The absorbance values were then normalized to cellular DNA.

The test system of data set [3] is MC3T3-E1 cells. Briefly: Matrix mineralization, quantitative calcium assay. Format: cell-based. Conditions: 100 μM in mineralization medium vs mineralization medium alone; day 21. As for the experimental part: FIG. 6. 6-Bnz-cAMP promotes osteoblastic mineralization by day 21. After 20 days of culture of osteoblast-like MC3T3-E1 cells in mineralization medium with or without 6-Bnz-cAMP, quantitative calcium levels were determined. […] To facilitate the comparison of different experimental settings, the level of calcium measurement of the “Control” cells cultured in the regular growth medium was set to one relative unit.
MC3T3-E1 cells were grown in mineralization media (The minimal media described in Example 1 with, 1% of antibiotic (100 U/ml penicillin G and […] streptomycin), 3 mM β-glycerolphosphate, and 10 μg/ml ascorbic acid). 6-Bnz-cAMP was added to the culture medium to a final concentration of 100 μM for experiments; mineralization media only was used for positive controls. For the qualitative determination of calcified matrix mineralization, at day 21, media were removed and cells were rinsed with calcium-free PBS for 3 times. The precipitated calcium of mineralized matrix was dissolved overnight in 0.6N hydrochloric acid at 4° C. The extracted calcium was then measured with a calcium assay kit (Calcium Liquicolor, Stanbio Laboratory, Boerne, Tex.) according to the manufacturer's instructions. The absorbance values were normalized to cellular DNA.

In data set [4] the test system is rat mesenchymal stem cells. Briefly: Proliferation of mesenchymal stem cells seeded on PLAGA scaffolds, PicoGreen dsDNA assay. The format is cell-based. To be noted: each time point, day 7 to day 21. As for the experimental part: FIG. 8. Effect of 6-Bnz-cAMP on the proliferation of rat mesenchymal stem cells seeded on PLAGA scaffolds. Cell proliferation was assessed by PicoGreen dsDNA assay.
Evaluation of the in vitro cellular behaviors of rabbit MSC on the 6-Bnz-cAMP loaded PLAGA microsphere based scaffold: For in vitro studies, cells are plated onto the 6-Bnz-cAMP loaded and unloaded control scaffolds. Cell adhesion is determined at 1, 3, 6 and 24 hours. Cell proliferation levels are determined at Day 3, 7, and 14 (FIG. 8). Cell differentiation and mineralization are determined at Day 7, 14, 21, and 28. At the pre-determined times, scaffolds will be removed from the medium and unattached cells are removed by washing with PBS 4 times. The in vitro assays are performed on the attached cells according to the procedures described above in Example 3.

Data set [5] deals with rat mesenchymal stem cells. Briefly: Quantitative calcium levels in mesenchymal stem cells. The format is cell-based. Conditions: vs control untreated cells and cells supplemented with BMP-2 peptide. As for the experimental part:
FIG. 9. Quantitative calcium levels determined in untreated (control) rat mesenchymal stem cells and cells treated with BMP-2 or 6-Bnz-cAMP. Keys: D-BMP-2 peptide; E-6-Bnz-cAMP; F-Control.
Cell adhesion, proliferation, and differentiation studies: Rabbit MSCs are plated onto PLAGA matrices at a plating density of 1×10^4 cells/cm^2 and cultured in standard basal medium. Four experimental groups are tested: (1) untreated cells, (2) 6-Bnz-cAMP treated cells, (3) BMP-2 treated cells, and (4) 6-Bnz-cAMP and BMP-2 treated cells. […] Initial cell adhesion is determined at 1 h, 3 h, 12 h, and 24 h. Cell proliferation and cell differentiation are determined at 1, 7, 14, and 21 days. Calcium deposition and ALP activity is also measured at days 3, 7, 14, and 21 in untreated cells compared to cells treated with BMP-2 or 6-Bnz-cAMP (FIGS. 9 and 10). […] For the cell adhesion assay, attached cells are quantified by crystal violet stain, a method routinely used to measure the initial cell adhesion. Cell proliferation is measured using a commercially available proliferation assay kit, MTS (Promega). For alkaline phosphatase (ALP) activity, the early markers of osteoblast differentiation are determined with a commercially availia ALP assay kit (Bio-rad). […] PCR amplification will be carried out and the resulting products will be analyzed by DNA gel electrophoresis and sequencing. […]

The test system of another data set is Protein Kinase A (PKA). To be noted: compared to non-specific cAMP analogue db-cAMP; cited from earlier work.

Consider `O=C(Nc1ncnc2c1ncn2C1O[C@@H]2COP(=O)([O-])O[C@H]2[C@H]1O)c1ccccc1.[Na+]` (stereo partly shown) [6-Bnz-cAMP, N^6-Benzoyladenosine-3′,5′-cyclic monophosphate], for which the “cell viability vs untreated cells” value in the data set on MC3T3-E1 cells [1] was “No significant differences”. The ALP activity entry was “induced” with MC3T3-E1 cells [2] (day 7) and “further increased” in the data set with MC3T3-E1 cells [2] (day 14). In addition, the calcium deposition entry (with MC3T3-E1 cells [3]; in data set [5]) was “further enhanced calcium deposition” in each case. Also, the “cell proliferation vs untreated control” value in data set [4] is given as “No significant differences”. In addition, the “activation of the Protein Kinase A (PKA) pathway” value with Protein Kinase A (PKA) is “selectively activates”.
